In patent US12606540B2, “Triazolone compound” (MEDSHINE DISCOVERY INC., priority 2020, dated 2026):

Tests used:
JAK2(h) = molecular target: T1, JAK2(h) (Homo sapiens, UniProt O60674); experiment: Eurofins KinaseProfiler kinase selectivity; format: biochemical; details: compound at 1 μM; ATP 45 μM; read-out: Residual enzyme activity
T1 construct: purchased Eurofins (KinaseProfiler platform)
Experimental: (§1) This experiment aims to study the activity and selectivity of the compounds towards kinases selected from the Eurofins KinaseProfiler™ platform. The compounds against each selected kinase were tested using the KinaseProfiler™ experimental procedure of Eurofins standard, which follows the relevant standard operating procedures. Protein kinases (except ATM(h) and DNA-PK(h)) were tested by […], while lipid kinases, ATM(h), ATR/ATRIP(h) and DNA-PK(h) were tested by HRTF®.
(§2) Compound powders were prepared into 10 mM mother liquor through 100% DMSO solution and then diluted to 50× liquid.
(§3) An appropriate amount of 50× storage solution of the test compound was taken into the test wells, and then the kinase and substrate were added and mixed well. A certain concentration of ATP was added to start the reaction.
(§4) Data were processed using custom in-house analysis software.
(§5) The kinase off-target study in vitro of compound 5 of the present disclosure was carried out to evaluate the inhibitory activity against 15 common kinases at a concentration of 1 μM of the drug, and the results are as shown in Table 6.

ALK(h) = molecular target: T2, ALK(h) (Homo sapiens, UniProt Q9UM73); experiment: Eurofins KinaseProfiler kinase selectivity; format: biochemical; details: compound at 1 μM; ATP 200 μM; read-out: Residual enzyme activity
T2 construct: purchased Eurofins (KinaseProfiler platform)
Experimental: as §1, §2, §3, §4, §5

CDK9/cyclin T1(h) = molecular target: T3, CDK9/cyclin T1(h) (Homo sapiens, UniProt P50750); experiment: Eurofins KinaseProfiler kinase selectivity; format: biochemical; details: compound at 1 μM; ATP 45 μM; read-out: Residual enzyme activity
T3 construct: purchased Eurofins (KinaseProfiler platform)
T3 sequence (P50750 whole entry): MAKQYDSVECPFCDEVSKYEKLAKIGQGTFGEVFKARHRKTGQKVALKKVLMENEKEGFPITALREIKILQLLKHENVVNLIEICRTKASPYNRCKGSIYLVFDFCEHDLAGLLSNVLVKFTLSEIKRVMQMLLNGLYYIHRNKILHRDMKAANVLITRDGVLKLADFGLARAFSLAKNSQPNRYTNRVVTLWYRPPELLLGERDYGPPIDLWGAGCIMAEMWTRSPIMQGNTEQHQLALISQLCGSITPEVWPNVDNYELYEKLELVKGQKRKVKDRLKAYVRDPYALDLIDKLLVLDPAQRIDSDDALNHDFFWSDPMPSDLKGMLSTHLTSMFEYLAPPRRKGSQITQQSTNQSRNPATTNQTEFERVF
T3 sequence (O60563 whole entry partner): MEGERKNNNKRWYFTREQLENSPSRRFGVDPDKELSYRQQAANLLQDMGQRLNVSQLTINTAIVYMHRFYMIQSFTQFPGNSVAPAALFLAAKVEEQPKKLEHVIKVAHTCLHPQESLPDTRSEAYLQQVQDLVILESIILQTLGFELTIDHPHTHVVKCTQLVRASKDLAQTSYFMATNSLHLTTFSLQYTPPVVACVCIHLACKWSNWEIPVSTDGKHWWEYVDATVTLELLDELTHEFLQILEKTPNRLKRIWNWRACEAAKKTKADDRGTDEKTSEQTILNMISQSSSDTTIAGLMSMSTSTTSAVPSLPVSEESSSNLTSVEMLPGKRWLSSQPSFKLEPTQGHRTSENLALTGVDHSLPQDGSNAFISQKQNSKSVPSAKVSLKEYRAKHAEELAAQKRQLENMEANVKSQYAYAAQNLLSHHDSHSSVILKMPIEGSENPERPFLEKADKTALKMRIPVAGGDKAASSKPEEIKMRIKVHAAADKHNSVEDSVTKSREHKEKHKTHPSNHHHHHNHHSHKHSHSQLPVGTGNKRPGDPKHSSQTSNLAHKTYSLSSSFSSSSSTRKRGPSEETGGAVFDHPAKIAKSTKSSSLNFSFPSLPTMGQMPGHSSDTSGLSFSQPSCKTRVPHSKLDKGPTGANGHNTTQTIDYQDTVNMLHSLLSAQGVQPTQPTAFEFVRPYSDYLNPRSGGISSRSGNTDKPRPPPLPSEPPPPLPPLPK
Experimental: as §1, §2, §3, §4, §5

CDK1/cyclinB(h) = molecular target: T4, CDK1/cyclinB(h) (Homo sapiens, UniProt P06493); experiment: Eurofins KinaseProfiler kinase selectivity; format: biochemical; details: compound at 1 μM; ATP 45 μM; read-out: Residual enzyme activity
T4 construct: purchased Eurofins (KinaseProfiler platform)
T4 sequence (P06493 whole entry): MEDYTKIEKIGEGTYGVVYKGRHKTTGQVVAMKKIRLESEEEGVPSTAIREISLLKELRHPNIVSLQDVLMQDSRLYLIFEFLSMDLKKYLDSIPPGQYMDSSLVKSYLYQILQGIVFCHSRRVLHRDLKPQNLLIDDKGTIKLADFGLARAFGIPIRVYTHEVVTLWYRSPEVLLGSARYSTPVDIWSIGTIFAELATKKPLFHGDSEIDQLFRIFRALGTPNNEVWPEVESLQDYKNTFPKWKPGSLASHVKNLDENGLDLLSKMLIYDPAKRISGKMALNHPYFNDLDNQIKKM
T4 sequence (P14635 whole entry partner): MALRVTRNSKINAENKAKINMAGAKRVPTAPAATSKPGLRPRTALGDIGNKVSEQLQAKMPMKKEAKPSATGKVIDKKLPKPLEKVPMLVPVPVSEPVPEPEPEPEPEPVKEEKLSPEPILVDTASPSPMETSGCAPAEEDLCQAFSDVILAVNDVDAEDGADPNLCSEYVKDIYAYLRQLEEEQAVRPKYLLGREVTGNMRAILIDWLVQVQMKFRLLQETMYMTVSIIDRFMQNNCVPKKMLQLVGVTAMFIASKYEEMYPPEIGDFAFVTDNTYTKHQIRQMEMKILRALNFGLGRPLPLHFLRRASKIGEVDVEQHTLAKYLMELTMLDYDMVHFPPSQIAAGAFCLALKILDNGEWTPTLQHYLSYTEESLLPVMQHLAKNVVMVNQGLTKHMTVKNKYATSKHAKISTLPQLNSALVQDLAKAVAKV
Experimental: as §1, §2, §3, §4, §5

CDK2/cyclinA(h) = molecular target: T5, CDK2/cyclinA(h) (Homo sapiens, UniProt P24941); experiment: Eurofins KinaseProfiler kinase selectivity; format: biochemical; details: compound at 1 μM; ATP 45 μM; read-out: Residual enzyme activity
T5 construct: purchased Eurofins (KinaseProfiler platform)
Experimental: as §1, §2, §3, §4, §5

GSK3β(h) = molecular target: T6, GSK3β(h) (Homo sapiens, UniProt P49841); experiment: Eurofins KinaseProfiler kinase selectivity; format: biochemical; details: compound at 1 μM; ATP 15 μM; read-out: Residual enzyme activity
T6 construct: purchased Eurofins (KinaseProfiler platform)
Experimental: as §1, §2, §3, §4, §5

MST1(h) = molecular target: T7, MST1(h) (Homo sapiens, UniProt Q13043); experiment: Eurofins KinaseProfiler kinase selectivity; format: biochemical; details: compound at 1 μM; ATP 90 μM; read-out: Residual enzyme activity
T7 construct: purchased Eurofins (KinaseProfiler platform)
Experimental: as §1, §2, §3, §4, §5

LOK(h) = molecular target: T8, LOK(h) (Homo sapiens, UniProt O94804); experiment: Eurofins KinaseProfiler kinase selectivity; format: biochemical; details: compound at 1 μM; ATP 120 μM; read-out: Residual enzyme activity
T8 construct: purchased Eurofins (KinaseProfiler platform)
Experimental: as §1, §2, §3, §4, §5

KDR(h) = molecular target: T9, KDR(h) (Homo sapiens, UniProt P35968); experiment: Eurofins KinaseProfiler kinase selectivity; format: biochemical; details: compound at 1 μM; ATP 90 μM; read-out: Residual enzyme activity
T9 construct: purchased Eurofins (KinaseProfiler platform)
Experimental: as §1, §2, §3, §4, §5

Rsk1(h) = molecular target: T10, Rsk1(h) (Homo sapiens, UniProt Q15418); experiment: Eurofins KinaseProfiler kinase selectivity; format: biochemical; details: compound at 1 μM; ATP 45 μM; read-out: Residual enzyme activity
T10 construct: purchased Eurofins (KinaseProfiler platform)
Experimental: as §1, §2, §3, §4, §5

Abl(h) = molecular target: T11, Abl(h) (Homo sapiens, UniProt P00519); experiment: Eurofins KinaseProfiler kinase selectivity; format: biochemical; details: compound at 1 μM; ATP 45 μM; read-out: Residual enzyme activity
T11 construct: purchased Eurofins (KinaseProfiler platform)
T11 sequence (P00519 whole entry): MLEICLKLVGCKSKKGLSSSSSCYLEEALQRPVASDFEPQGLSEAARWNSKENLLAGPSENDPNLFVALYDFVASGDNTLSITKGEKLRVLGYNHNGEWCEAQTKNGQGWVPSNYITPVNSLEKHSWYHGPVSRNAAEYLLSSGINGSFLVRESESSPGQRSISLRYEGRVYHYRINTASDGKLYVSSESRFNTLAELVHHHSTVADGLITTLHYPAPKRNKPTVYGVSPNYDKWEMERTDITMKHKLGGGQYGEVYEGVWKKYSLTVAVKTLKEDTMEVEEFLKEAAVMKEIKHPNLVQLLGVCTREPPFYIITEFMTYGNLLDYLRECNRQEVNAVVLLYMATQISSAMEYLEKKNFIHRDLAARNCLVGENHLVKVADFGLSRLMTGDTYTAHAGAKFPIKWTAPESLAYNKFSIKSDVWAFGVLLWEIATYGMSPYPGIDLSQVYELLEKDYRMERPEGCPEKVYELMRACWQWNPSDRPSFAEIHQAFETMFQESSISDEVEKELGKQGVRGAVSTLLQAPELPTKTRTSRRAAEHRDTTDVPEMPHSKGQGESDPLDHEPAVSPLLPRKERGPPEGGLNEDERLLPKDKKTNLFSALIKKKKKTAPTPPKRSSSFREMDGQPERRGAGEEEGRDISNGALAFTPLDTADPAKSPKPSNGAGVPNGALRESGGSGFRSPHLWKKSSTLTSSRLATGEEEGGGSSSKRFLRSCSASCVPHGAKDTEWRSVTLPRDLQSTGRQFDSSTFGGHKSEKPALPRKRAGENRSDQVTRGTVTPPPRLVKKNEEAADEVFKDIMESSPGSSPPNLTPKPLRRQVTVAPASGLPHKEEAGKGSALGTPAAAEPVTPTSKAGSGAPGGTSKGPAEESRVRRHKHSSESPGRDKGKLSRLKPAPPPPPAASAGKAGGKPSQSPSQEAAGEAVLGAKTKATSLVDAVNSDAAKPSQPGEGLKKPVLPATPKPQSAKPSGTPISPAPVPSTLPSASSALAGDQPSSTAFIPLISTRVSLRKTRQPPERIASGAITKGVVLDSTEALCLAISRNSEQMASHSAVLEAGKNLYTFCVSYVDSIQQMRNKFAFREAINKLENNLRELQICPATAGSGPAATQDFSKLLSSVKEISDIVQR
Experimental: as §1, §2, §3, §4, §5

Flt3(h) = molecular target: T12, Flt3(h) (Homo sapiens, UniProt P36888); experiment: Eurofins KinaseProfiler kinase selectivity; format: biochemical; details: compound at 1 μM; ATP 200 μM; read-out: Residual enzyme activity
T12 construct: purchased Eurofins (KinaseProfiler platform)
Experimental: as §1, §2, §3, §4, §5

MLK1(h) = molecular target: T13, MLK1(h) (Homo sapiens, UniProt P80192); experiment: Eurofins KinaseProfiler kinase selectivity; format: biochemical; details: compound at 1 μM; ATP 45 μM; read-out: Residual enzyme activity
T13 construct: purchased Eurofins (KinaseProfiler platform)
Experimental: as §1, §2, §3, §4, §5

TNIK(h) = molecular target: T14, TNIK(h) (Homo sapiens, UniProt Q9UKE5); experiment: Eurofins KinaseProfiler kinase selectivity; format: biochemical; details: compound at 1 μM; ATP 70 μM; read-out: Residual enzyme activity
T14 construct: purchased Eurofins (KinaseProfiler platform)
T14 sequence (Q9UKE5 whole entry): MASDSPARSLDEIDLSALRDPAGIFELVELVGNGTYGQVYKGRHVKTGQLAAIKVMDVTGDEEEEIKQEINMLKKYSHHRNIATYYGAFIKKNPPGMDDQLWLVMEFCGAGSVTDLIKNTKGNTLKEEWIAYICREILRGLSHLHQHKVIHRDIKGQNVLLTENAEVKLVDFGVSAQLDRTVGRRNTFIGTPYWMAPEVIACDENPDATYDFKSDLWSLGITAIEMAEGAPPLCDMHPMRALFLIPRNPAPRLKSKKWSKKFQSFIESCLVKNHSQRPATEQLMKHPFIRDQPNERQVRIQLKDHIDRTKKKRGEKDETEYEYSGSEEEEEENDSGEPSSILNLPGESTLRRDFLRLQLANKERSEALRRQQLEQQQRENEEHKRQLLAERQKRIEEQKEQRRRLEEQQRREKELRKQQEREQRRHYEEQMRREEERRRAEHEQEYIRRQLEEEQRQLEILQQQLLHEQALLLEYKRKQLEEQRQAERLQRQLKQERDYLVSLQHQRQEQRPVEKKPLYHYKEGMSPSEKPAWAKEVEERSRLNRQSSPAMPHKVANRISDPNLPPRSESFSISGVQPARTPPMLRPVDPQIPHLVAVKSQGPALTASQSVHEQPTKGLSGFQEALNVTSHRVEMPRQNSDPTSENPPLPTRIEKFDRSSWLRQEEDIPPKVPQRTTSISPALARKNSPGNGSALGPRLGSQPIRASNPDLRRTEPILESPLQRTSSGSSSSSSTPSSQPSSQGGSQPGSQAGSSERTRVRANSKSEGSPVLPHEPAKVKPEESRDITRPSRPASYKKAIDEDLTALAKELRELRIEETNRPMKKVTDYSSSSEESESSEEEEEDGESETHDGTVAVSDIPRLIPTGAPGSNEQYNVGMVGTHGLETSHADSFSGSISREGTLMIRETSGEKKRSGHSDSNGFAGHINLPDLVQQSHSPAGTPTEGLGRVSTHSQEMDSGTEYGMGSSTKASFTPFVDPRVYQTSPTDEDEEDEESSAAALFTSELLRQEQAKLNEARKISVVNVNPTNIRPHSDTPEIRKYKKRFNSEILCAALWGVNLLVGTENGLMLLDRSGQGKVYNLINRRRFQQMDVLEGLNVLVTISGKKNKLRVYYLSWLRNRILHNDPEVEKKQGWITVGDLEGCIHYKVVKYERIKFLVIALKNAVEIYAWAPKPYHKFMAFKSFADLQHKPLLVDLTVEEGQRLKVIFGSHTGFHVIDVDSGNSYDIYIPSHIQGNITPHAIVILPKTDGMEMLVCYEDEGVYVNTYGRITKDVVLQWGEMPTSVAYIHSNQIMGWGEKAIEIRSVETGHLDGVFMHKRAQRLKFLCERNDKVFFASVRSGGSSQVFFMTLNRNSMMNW
Experimental: as §1, §2, §3, §4, §5

Fyn(h) = molecular target: T15, Fyn(h) (Homo sapiens, UniProt P06241); experiment: Eurofins KinaseProfiler kinase selectivity; format: biochemical; details: compound at 1 μM; ATP 70 μM; read-out: Residual enzyme activity
T15 construct: purchased Eurofins (KinaseProfiler platform)
T15 sequence (P06241 whole entry): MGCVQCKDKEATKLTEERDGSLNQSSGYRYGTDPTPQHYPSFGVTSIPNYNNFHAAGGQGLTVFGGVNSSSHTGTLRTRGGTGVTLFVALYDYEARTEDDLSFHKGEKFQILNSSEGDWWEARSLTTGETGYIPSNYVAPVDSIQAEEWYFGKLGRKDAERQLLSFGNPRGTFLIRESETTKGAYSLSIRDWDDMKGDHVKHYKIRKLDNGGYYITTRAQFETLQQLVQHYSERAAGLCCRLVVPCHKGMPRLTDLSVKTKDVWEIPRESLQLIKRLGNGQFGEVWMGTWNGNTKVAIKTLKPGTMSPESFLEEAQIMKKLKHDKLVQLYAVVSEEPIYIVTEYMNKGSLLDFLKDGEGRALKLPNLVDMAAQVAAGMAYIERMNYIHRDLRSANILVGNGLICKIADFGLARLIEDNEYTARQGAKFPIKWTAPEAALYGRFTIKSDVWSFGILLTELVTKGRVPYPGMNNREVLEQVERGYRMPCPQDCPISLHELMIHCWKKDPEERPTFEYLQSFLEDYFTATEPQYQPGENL
Experimental: as §1, §2, §3, §4, §5

MDR1 (P-glycoprotein) = experiment: Permeability evaluation on MDR1-MDCK II cell line; details: dog, MDCK-MDR1, pH 7.4
[1] = tested on: dextran sulfate sodium (DSS) induced colitis model; experiment: DSS induced colitis model in mice; format: in vivo, C57BL/6 mice
Experimental: • 6.1 Purpose of the study: In order to verify the effect of the test sample on dextran sulfate sodium (DSS) induced colitis model in […] mice. • 6.2 Experimental design for inducing colitis: The mice in the vehicle and administration groups were administered on Day 0 for 1 h, and the mice freely drank water containing 3% DSS until Day 7, after Day 8, the mice were euthanized and their colon was taken for analysis. C57BL/6 mice, 8 weeks of age, 18-20 g, female. Administration was started on Day 0 to Day 7 for both the vehicle and administration groups. • 6.3 Drinking water containing DSS: The appropriate amount of DSS powder was dissolved in autoclaved drinking water and configured as a 3% DSS solution. • 6.4 Administration: Animals of group 1 were given the vehicle, animals of group 2 were given compound 5, and animals of group 3 were given normal drinking water and the vehicle, the vehicle was 5% DMSO/10% Solutol solution/0.2% Tween80/84.8% aqueous solution, with twice a day. 6.5 Measurement 6.5.1 Weight
Recording frequency was once a day, Days 0 to 8.
The recording frequency is once a day, Days 0 to 8, and is rated at 4 grades according to the following criteria: • Weight change (0, ≤1%; 1, 1-5%; 2, 6-10%; 3, 11-20%; 4, >20%). • Hematochezia (0, negative; 1, weakly positive for occult blood; 2, positive for occult blood; 3, significant hematochezia; 4, massive hematochezia) • Stool score (0, normal; 1, soft stool; 2, flaccid stool; 3, loose stool; 4, diarrhea)
The daily disease index is obtained by adding the scores of the above three parts.
On Day 8, all animals received an overdose of CO2 and were executed by cervical dislocation. The abdominal cavity was cut open and the colon of the mice was taken, the tissue around the colon was removed, and the longitudinal length from the ileocecum to the anus was measured and the whole was photographed. The colon was dissected, the intestinal contents were cleaned, weighed separately, and the stool consistency was recorded.
The colonic tissue was divided into two longitudinally and one was fixed in 10% neutral paraformaldehyde in the form of “Swiss” rolls.
The experimental data were expressed as mean±standard error (S.E.M.). Data were adopted by GraphPad Prism and analyzed by ANOVA statistical method. P<0.05 was considered as statistical difference.

[2] = 5 mpk/BID, compared with the modeling group, p<0.0001

Structure (SMILES): CCn1c(CO)nn(-c2cc(O[C@@H](C)C(F)(F)F)c(/C(F)=C/c3ncccc3Cl)cc2F)c1=O [Compound 5]
- remaining activity at 1 µM (JAK2(h)): 81%
- remaining activity at 1 µM (ALK(h)): 94%
- remaining activity at 1 µM (CDK9/cyclin T1(h)): 95%
- remaining activity at 1 µM (CDK1/cyclinB(h)): 91%
- remaining activity at 1 µM (CDK2/cyclinA(h)): 72%
- remaining activity at 1 µM (GSK3β(h)): 126%
- remaining activity at 1 µM (MST1(h)): 96%
- remaining activity at 1 µM (LOK(h)): 108%
- remaining activity at 1 µM (KDR(h)): 90%
- remaining activity at 1 µM (Rsk1(h)): 88%
- remaining activity at 1 µM (Abl(h)): 88%
- remaining activity at 1 µM (Flt3(h)): 84%
- remaining activity at 1 µM (MLK1(h)): 111%
- remaining activity at 1 µM (TNIK(h)): 84%
- remaining activity at 1 µM (Fyn(h)): 121%
- Papp A→B at 150 min, 2 μM (MDR1 (P-glycoprotein)): 13.3 ×10⁻⁶ cm/s
- Papp B→A at 150 min, 2 μM (MDR1 (P-glycoprotein)): 18.2 ×10⁻⁶ cm/s
- Papp at 150 min, 2 μM (MDR1 (P-glycoprotein)): > 5.5 ×10⁻⁶ cm/s
- efflux ratio at 150 min, 2 μM (MDR1 (P-glycoprotein)): 1.37
- Level of inflammatory factor TNF-α in the colonic mucosa ([1]; 5 mg/kg BID, Day 8, p<0.05 compared with the modeling group): effectively reduces
- Colon length (colonic shortening) at the experimental endpoint [1, 2]: significantly improves
- Colonic density at the experimental endpoint [1, 2]: significantly improves the inflammation-induced increase of colonic density
- DAI (Disease Activity Index) score ([1]; compared to the modeling group, administration for 6 days, Day 8 p<0.0001): significantly improved
- Animal weight change ([1]; compared with the modeling group, p<0.01 on Day 8, twice a day): significantly slow down the weight loss of mice
